# Columns and labels:
# Huh7 cells = assay: MTT cell viability assay, Huh7; format: cell-based
# Procedure: (§1) Cell lines, culture and reagents. The HCC cell lines Hep3B, PLC5 and Huh7, as well as primary nonmalignant human hepatocytes were used in this study. Cancer cells were cultured in Dulbecco's Modified Eagle's medium (DMEM) supplemented with 10% fetal bovine serum (FBS). Hepatocytes were maintained in defined Hepatocyte Culture Medium. […] Various polyclonal and monoclonal antibodies were used for western blotting, immunocytochemical, and flow cytometric analyses.
# (§2) Cell viability assay. Cell viability was assessed by 3-(4,5-dimethylthiazol-2-yl)-2,5-diphenyl-2H-tetrazolium bromide (MTT) assays in six replicates. Cells were seeded (4,000 cells/well; 96-well plate) for 24 h and treated with test agents in 5% FBS-supplemented DMEM. After treatment, cells were incubated in medium containing 0.5 mg/ml MTT (37° C., 2 h). Reduced MTT was dissolved in DMSO (200 μL/well) and absorbances measured at 570 nm.
# primary CLL cells = assay: Cytotoxicity in primary CLL cells (Annexin V / propidium iodide flow cytometry); format: cell-based; conditions: primary CLL cells, 24 hrs, OSU-2S at 8 μM
# Procedure: Antitumor and other effects of OSU-2S were also evaluated in Chronic Lymphoid Leukemia cells. OSU-2S cytotoxicity in primary CLL cells is measured at 24 hrs by staining for Annexin V and Propidium Iodide using Flow cytometer. The number of live cells (stained negative for both the stains) were normalized to untreated control. Fludarabine metabolite (2-Fara) was used as a control.
# The effect of OSU-2S was evaluated in 3 different CLL cell lines (WROTH<THOU, and RAHUE) over a 24 hour period, as shown in FIG. 9. Time dependent OSU-2S cytotoxicity in primary CLL cells was measured by treating the cells with OSU-2S (8 μM) for indicated period of time and washed and cultured in the fresh media for 24 hr. The number of live cells stained negative for Annexin V and Propidium Iodide were measured at 24 hrs by using Flowcytometer and normalized to untreated control.
# CD37 activation and OSU-2S produced enhanced cytotoxicity in CLL cells, as detected by flow cytometer at 24 hr. in CLL cells treated with CD37 antibody and cross linker or OSU-2S 8 μM or with both are stained for Annexin V and propidium iodide at 24 hr.
# CLL cells = assay: Western blot analysis in CLL cells (PARP, caspase 3, caspase 9); format: cell-based
# Source text: Western blot analysis as carried out to further observe the effects of OSU-2S in CLL cells. […] OSU-2S in CLL activates caspase, as evidenced by cleavage of poly (ADP-ribose) polymerase (PARP). Jurkat cell with or without UV irradiation were included as controls. […] OSU-2S was also shown to activate caspase 3 in CLL cells. […] Finally, OSU-2S activates caspase 9 in CLL.
# [1] = target: T1, S1P1 receptor-overexpressing Huh7 cells (Homo sapiens, UniProt P21453); assay: Immunocytochemical analysis of S1P1 receptor internalization; format: cell-based; conditions: immunocytochemistry
# T1 construct: expressed in transfected cells
# T1 sequence (P21453 whole entry): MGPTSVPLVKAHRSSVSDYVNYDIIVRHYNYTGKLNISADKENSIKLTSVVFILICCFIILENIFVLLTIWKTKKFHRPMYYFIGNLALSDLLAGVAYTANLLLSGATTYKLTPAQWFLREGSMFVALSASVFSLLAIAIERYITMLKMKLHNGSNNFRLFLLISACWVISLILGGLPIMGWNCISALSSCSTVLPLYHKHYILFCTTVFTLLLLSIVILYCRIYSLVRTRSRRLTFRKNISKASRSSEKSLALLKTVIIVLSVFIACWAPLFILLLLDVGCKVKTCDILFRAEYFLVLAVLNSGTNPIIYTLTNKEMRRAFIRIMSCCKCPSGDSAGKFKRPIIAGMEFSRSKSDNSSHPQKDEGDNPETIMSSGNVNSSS
# Procedure: Immunocytochemistry. Immunocytochemical analysis of S1P1 internalization and PKCδ nuclear translocation were performed as described. […] Briefly, treated cells were washed, fixed with 4% paraformaldehyde, and permeabilized with 0.1% Triton X-100. After blocking with 2% FBS, cells were incubated with rabbit anti-S1P1 or rabbit anti-PKCδ antibodies (1:200 dilution, 4° C., 24 h), followed by Alexa Fluor 488-conjugated goat anti-rabbit IgG (room temperature, 1 h). Nuclei were counterstained with a 4,6-diamidino-2-phenylindole (DAPI)-containing mounting medium (Vector Laboratories, Burlingame, Calif.).
# [2] = tested on: lymphocytes in peripheral blood; assay: In vivo evaluation of T-lymphocyte homing; conditions: CD2F1 mice, i.p., 6 h
# Procedure: In vivo evaluation of T-lymphocyte homing. […] Six hours later, animals were sacrificed, and peripheral blood mononuclear cells were prepared as described. Dragun et al., Kidney Int 65, 1076-1083 (2004). Cells were stained with FITC-labeled rat anti-mouse CD3 molecular complex and PE-labeled rat anti-mouse CD45RA (4° C., in darkness, 30 min), and analyzed by flow cytometry.
# Hep3B cells = assay: MTT cell viability assay, Hep3B; format: cell-based; conditions: Homo sapiens, 24 h of treatment
# Procedure: as §1, §2
# PLC5 cells = assay: MTT cell viability assay, PLC5; format: cell-based; conditions: 24 h of treatment
# Procedure: as §1, §2
# normal human hepatocytes = assay: MTT cell viability assay, normal hepatocytes; format: cell-based; conditions: 24 h
# Procedure: as §1, §2
# [3] = target: T1, S1P1 receptor-overexpressing Huh7 cells; assay: Cell viability in stable S1P1 receptor transfectants; format: cell-based; conditions: two stable S1P1 clones vs wild-type Huh7
# Procedure: as §2
# Overexpression of S1P1 Receptors. Huh7 or Hep3B cells were transfected with plasmids encoding S1PR1, Flag-tagged GST-π or hemagglutinin (HA)-tagged, CA-Akt. The corresponding empty vectors were used as controls. Stable clones were selected over 3 weeks by geneticin, and the expression of cloned proteins was confirmed by Western blotting.
# [4] = tested on: PTEN, p53, Mcl-1 in Huh7 cells; assay: Western blot of signaling markers in drug-treated Huh7 cells; format: cell-based; conditions: 24 h
# Procedure: Immunoblotting. Immunoblotting of biomarkers in cell lysates and tumor tissue homogenates was carried out according to a published procedure. Hung et al., Cancer Res., 68, 1204-1212 (2008).
# [5] = tested on: subcutaneous Hep3B tumors; assay: Ectopic (subcutaneous) Hep3B xenograft tumor model; format: in vivo, athymic nude mice
# Procedure: (§3) Xenograft tumor models. Ectopic tumors were established in athymic nude mice by subcutaneous injection of 1×10^6 Hep3B cells in a total volume of 0.1 ml of serum-free medium containing 50% Matrigel. Mice with established tumors were randomized to five groups (n=8) that received daily i.p. injections of OSU-2S or FTY720 at 5 or 10 mg/kg, or the vehicle. Tumor burdens were determined weekly using calipers (volume=width^2×length×0.52). Body weights were measured weekly. At the study endpoint, tumors were harvested, snap-frozen and stored at −80° C. for biomarker analysis. Blood and tissues were collected for evaluation of complete blood counts, serum chemistry and histopathology.
# [6] = tested on: orthotopic Hep3B-luc tumors; assay: Orthotopic Hep3B-luc xenograft tumor model; format: in vivo, athymic nude mice; parameters: dose or concentration left out as unconfirmed; conditions: by three weeks
# Source text: Orthotopic tumors were established by direct intrahepatic injection of luciferase-expressing Hep3B (Hep3B-luc) cells as described. Omar et al., Mol Pharmacol, 76, 957-968 (2009). The establishment and growth of tumors were monitored by bioluminescent imaging using the IVIS™ imaging system (Xenogen, Alameda, Calif.). […] All animal use described in this manuscript was done in accordance with protocols approved by The Ohio State University Institutional Animal Care and Use Committee.
# [7] = Toxicity evaluation in tumor-bearing mice (body weight, blood counts, histopathology); format: in vivo, athymic nude mice; conditions: for mice with abdominal adhesions with varying amounts of peritonitis: of six mice per group examined histologically
# Procedure: as §3
# Orthotopic tumors were established by direct intrahepatic injection of luciferase-expressing Hep3B (Hep3B-luc) cells as described. Omar et al., Mol Pharmacol, 76, 957-968 (2009). The establishment and growth of tumors were monitored by bioluminescent imaging using the IVIS™ imaging system (Xenogen, Alameda, Calif.). Two weeks after tumor cell injection, animals with established tumors were randomized to three groups (n=3) that received daily i.p. injections of FTY720 or OSU-2S at 5 mg/kg, or vehicle for 42 days and were imaged weekly. All animal use described in this manuscript was done in accordance with protocols approved by The Ohio State University Institutional Animal Care and Use Committee.
# [8] = target: T2, PP2A (Serine/Threonine Phosphatase 2A) (Homo sapiens, UniProt P67775); assay: PP2A functional enzymatic assay (malachite green) in primary CLL cells; format: cell-based; conditions: 24 hrs, OSU-2S 8 μM, untreated about 0.07
# T2 construct: endogenous in cells; host or cells: primary CLL cells; Ramos cells
# T2 sequence (P67775 whole entry): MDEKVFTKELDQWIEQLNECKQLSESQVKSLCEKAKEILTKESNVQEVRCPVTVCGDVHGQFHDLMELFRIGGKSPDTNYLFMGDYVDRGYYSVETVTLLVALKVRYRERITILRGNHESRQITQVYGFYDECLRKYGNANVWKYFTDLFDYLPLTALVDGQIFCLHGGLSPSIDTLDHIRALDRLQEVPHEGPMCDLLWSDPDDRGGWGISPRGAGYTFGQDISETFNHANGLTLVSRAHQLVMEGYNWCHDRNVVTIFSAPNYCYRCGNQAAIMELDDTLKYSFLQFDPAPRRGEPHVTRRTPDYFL
# Procedure: The ability of OSU-2S to induce PP2A (Serine/Threonine Phosphatase 2A) activity in primary CLL cells was measured at 24 hrs by a functional enzymatic assay. Lysates made from OSU-2S 8 μM treated cells are used to immunoprecipitate PP2Ac which was then used as an enzyme to cleave the specific phosphor-peptide substrate in the functional assay. The cleaved free phosphates were measured by adding malachite green detection solutions and measuring the absorbance at A650 nm. Ramos cells were also included, and FTY720 was used as the control.
# [9] = tested on: SphK2 siRNA-transfected Huh7 cells; assay: Cell viability after siRNA-mediated knockdown of SphK2; format: cell-based; conditions: SphK2 siRNA vs scrambled
# Procedure: as §2
# Small interfering (si)RNA- or short hairpin (sh)RNA-mediated knockdown. PLC5 and Huh7 cells were transfected with the following siRNA duplexes or shRNA plasmids according to the manufacturer's protocol for the knockdown of target genes: siRNA: glutathione S-transferase (GST)-π and sphingosine kinase 2 (SphK2); shRNA constructs: pKD-PKCδ-v2. Stable clones were isolated from Huh7 cells transfected with shRNA plasmids were further subjected to stable clone isolation by geneticin. Immunoblotting was performed to confirm the knockdowns.
smiles,measurement,setting,value
CCCCCCCCc1ccc(CCC(N)(CO)COP(=O)(O)O)cc1 (stereo not drawn) [p-FTY720],suppression of HCC cell viability by phosphate derivatives,"Huh7 cells; 24 h, MTT (FIG. 6A)",lacks in vitro efficacy
"Nc1nc(F)nc2c1ncn2[C@@H]1O[C@H](CO)[C@@H](O)[C@@H]1O [2-Fara, reference compound]",growth (live cells normalized to untreated control),primary CLL cells,100%
same,caspase 3 activation,"CLL cells; 24 and 48 hours, products at about 16-18 kD",caspase 3 cleaved products
same,caspase 9 activation,CLL cells; products at about 30-34 kD,caspase 9 cleaved products
CCCCCCCCc1ccc(CCC(N)(CO)CO)cc1 [FTY720],S1P1 receptor internalization and clustering in the cytoplasm,[1],profound effect
same,drop in the number of T lymphocytes in peripheral blood,[2]; 1 mg/kg,≥ 75%
same,changes in circulating B lymphocytes,[2],no comparable changes
same,IC50,"Huh7 cells; Homo sapiens, Huh-7, 24 h of treatment, MTT",4.8 µM
same,IC50,Hep3B cells,4.2 µM
same,IC50,PLC5 cells,6.2 µM
same,sensitivity of normal human hepatocytes relative to malignant cells,normal human hepatocytes,resistant
same,effect of S1P1 receptor overexpression on antiproliferative activity,[3],partially protected
same,"effect on expression levels of PTEN, p53, or Mcl-1",[4],neither OSU-2S nor FTY720 had an appreciable effect
same,ectopic Hep3B tumor growth vs vehicle control,"[5]; 5 mg/kg, i.p. once daily, P<0.001",completely suppressed
same,dose dependency of tumor-suppressive response,[5]; 5 and 10 mg/kg i.p. daily,no dose dependency
same,intratumoral biomarkers of drug activity,"[5]; Hep3B tumor tissue homogenates, Western blot",PKCδ and caspase-3 were activated
same,orthotopic tumor burden (bioluminescence),[6],suppressed mean tumor burden to the original level
same,mice with abdominal adhesions with varying amounts of peritonitis,[7]; 5 mg/kg,three
same,mice with abdominal adhesions with varying amounts of peritonitis,[7]; 10 mg/kg,all
same,lymphocyte levels,[7]; ectopic tumor-bearing mice at study endpoint,minimal to mild lymphopenia
same,overt toxicity and body weight,"[7]; ectopic tumor-bearing mice, daily i.p. 5 or 10 mg/kg",no overt signs of toxicity and no loss of body weight
same,tolerability (stable body weights),"[7]; orthotopic tumor-bearing mice, daily i.p., 42 days",well tolerated
same,"PP2A activity, absorbance at A650 nm",[8],about 0.20
same,effect of SphK2 knockdown on antiproliferative activity (sensitizing effect),[9],significantly increased
